Literature values, collected in US8530500B2, “Stable pharmaceutical omeprazole formulation for oral administration” (Vetegen, LLC, priority 2009, dated 2013).
Values after ≈ are worked out from the molar mass of the structure shown.

Assays:
[1] = not given; remark: listed apart in the source

half-life at neutral pH (neutral pH): about 14 hours
stability at pH levels above 7 (pH above 7, protected from light and extremes in temperature and humidity): very stable
stability in water, ethanol or acidic environments (water, ethanol or acidic environments): not very stable
solubility in dimethyl sulfoxide (DMSO) ([1]; DMSO): > 19 mg/mL
solubility in Polyethylene Glycol 400 ([1]; Polyethylene Glycol 400): 20 mg/mL (≈ 57.9 mM)
solubility in ethanol ([1]; ethanol): 4.5 mg/mL (≈ 13 mM)
solubility in water ([1]; water): 0.5 mg/mL (≈ 1.45 mM)
Compound: COc1ccc2[nH]c([S+]([O-])Cc3ncc(C)c(OC)c3C)nc2c1 (stereo not shown) [omeprazole]
